“And” between values parts separate entries of the source, which are not always exact repeats. Equal entries are not always repeated. Inconclusive results and toxic doses are left out.
Tested on: L1210 leukemia ip in BDF1 mice, survival T/C
Assay: NCI In Vivo Anticancer Drug Screen. Data for tumor model L1210 Leukemia (intraperitoneal) in B6D2F1 (BDF1) mice
Settings: endpoint: mean survival time, higher = longer survival
Summary of the method: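 Read-out is survival time, reported as the treated-group measurement over the vehicle-control measurement.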

[1] = dose: 100.0 mg/kg/injection, schedule: Q01DX009 (ip), vehicle: saline with Tween-80
[2] = dose: 100.0 mg/kg/injection, schedule: Q04DX003 (ip), vehicle: saline with Tween-80
[3] = dose: 200.0 mg/kg/injection, schedule: Q01DX009 (ip), vehicle: saline with Tween-80
[4] = dose: 400.0 mg/kg/injection, schedule: Q01DX009 (ip), vehicle: saline with Tween-80
[5] = dose: 100.0 mg/kg/injection, schedule: Q01DX001 (ip), vehicle: saline
[6] = dose: 200.0 mg/kg/injection, schedule: Q01DX001 (ip), vehicle: saline
[7] = dose: 400.0 mg/kg/injection, schedule: Q01DX001 (ip), vehicle: saline
[8] = dose: 100.0 mg/kg/injection, schedule: Q04DX003 (ip), vehicle: saline
[9] = dose: 100.0 mg/kg/injection, schedule: Q01DX009 (ip), vehicle: Klucel (hydroxypropylcellulose) (HPC)
[10] = dose: 200.0 mg/kg/injection, schedule: Q01DX009 (ip), vehicle: Klucel (hydroxypropylcellulose) (HPC)
[11] = dose: 100.0 mg/kg/injection, schedule: Q04DX003 (ip), vehicle: Klucel (hydroxypropylcellulose) (HPC)
[12] = dose: 200.0 mg/kg/injection, schedule: Q04DX003 (ip), vehicle: Klucel (hydroxypropylcellulose) (HPC)
[13] = dose: 400.0 mg/kg/injection, schedule: Q04DX003 (ip), vehicle: Klucel (hydroxypropylcellulose) (HPC)
[14] = dose: 50.0 mg/kg/injection, schedule: Q01DX001 (ip), vehicle: saline
[15] = dose: 150.0 mg/kg/injection, schedule: Q04DX003 (ip), vehicle: saline

Structure (SMILES): NC(Cc1cccs1)C(=O)O (stereo unspecified)
- T/C (dose: 100.0 mg/kg/injection, schedule: Q01DX001 (ip), vehicle: carboxymethylcellulose (CMC)): 96 % of control
- T/C [1]: 101 % of control
- T/C [2]: 99 % of control
- T/C (dose: 200.0 mg/kg/injection, schedule: Q01DX001 (ip), vehicle: carboxymethylcellulose (CMC)): 101 % of control
- T/C [3]: 104 % of control
- T/C (dose: 200.0 mg/kg/injection, schedule: Q04DX003 (ip), vehicle: saline with Tween-80): 99 % of control
- T/C (dose: 250.0 mg/kg/injection, schedule: Q01DX Z (ip), vehicle: carboxymethylcellulose (CMC)): 89 % of control
- T/C (dose: 400.0 mg/kg/injection, schedule: Q01DX001 (ip), vehicle: carboxymethylcellulose (CMC)): 101 % of control
- T/C [4]: 97 % of control
- T/C (dose: 400.0 mg/kg/injection, schedule: Q04DX003 (ip), vehicle: saline with Tween-80): 96 % of control
- T/C (dose: 1000.0 mg/kg/injection, schedule: Q01DX Z (ip), vehicle: carboxymethylcellulose (CMC)): 92 % of control

Structure (SMILES): CCOC(=O)CC1=C(c2ccc(OC)cc2)c2ccc(OC)cc2C1=O
- T/C (dose: 50.0 mg/kg/injection, schedule: Q01DX001 (ip), vehicle: Klucel (hydroxypropylcellulose) (HPC)): 98 % of control
- T/C (dose: 100.0 mg/kg/injection, schedule: Q01DX001 (ip), vehicle: Klucel (hydroxypropylcellulose) (HPC)): 98 % of control
- T/C (dose: 200.0 mg/kg/injection, schedule: Q01DX001 (ip), vehicle: Klucel (hydroxypropylcellulose) (HPC)): 95 % of control

Structure (SMILES): CS(=O)(=O)NCC1OC(n2cnc3c(N)ncnc32)C(O)C1O (stereo unspecified)
- T/C [5]: 104 % of control
- T/C [6]: 96 % of control
- T/C [7]: 98 % of control

Structure (SMILES): O=C(O)C1(O)CCCCC1
- T/C [5]: 104 % of control
- T/C (dose: 100.0 mg/kg/injection, schedule: Q01DX009 (ip), vehicle: saline): 100 % of control
- T/C (dose: 100.0 mg/kg/injection, schedule: Q04DX002 (ip), vehicle: saline): 104 % of control
- T/C [8]: 98 % of control
- T/C [6]: 110 % of control
- T/C (dose: 200.0 mg/kg/injection, schedule: Q04DX002 (ip), vehicle: saline): 93 % of control
- T/C (dose: 200.0 mg/kg/injection, schedule: Q04DX003 (ip), vehicle: saline): 113 % of control
- T/C [7]: 110 % of control
- T/C (dose: 400.0 mg/kg/injection, schedule: Q04DX003 (ip), vehicle: saline): 101 % of control

Structure (SMILES): C/C=C/C[P+](Cc1ccccc1)(c1ccccc1)c1ccccc1
- T/C (dose: 3.13 mg/kg/injection, schedule: Q01DX009 (ip), vehicle: saline with Tween-80): 103 % of control
- T/C (dose: 12.5 mg/kg/injection, schedule: Q01DX009 (ip), vehicle: saline with Tween-80): 120 % of control and 91 % of control

Structure (SMILES): O=P(c1ccccc1)(c1ccccc1)N1CC1c1ccccc1 (stereo unspecified)
- T/C (dose: 75.0 mg/kg/injection, schedule: Q01DX001 (ip), vehicle: carboxymethylcellulose (CMC)): 96 % of control
- T/C (dose: 150.0 mg/kg/injection, schedule: Q01DX001 (ip), vehicle: carboxymethylcellulose (CMC)): 95 % of control
- T/C (dose: 300.0 mg/kg/injection, schedule: Q01DX001 (ip), vehicle: carboxymethylcellulose (CMC)): 90 % of control

Structure (SMILES): O=P(C1CCCCC1)(C1CCCCC1)C1CCCCC1
- T/C [9]: 89 % of control
- T/C [10]: 97 % of control

Structure (SMILES): Cc1ccc(Cl)cc1NC(=O)C(Br)C(Br)c1ccccc1 (stereo unspecified)
- T/C [9]: 100 % of control
- T/C [10]: 96 % of control
- T/C (dose: 400.0 mg/kg/injection, schedule: Q01DX009 (ip), vehicle: Klucel (hydroxypropylcellulose) (HPC)): 104 % of control

Structure (SMILES): O=C(Nc1ccc2ccccc2c1)c1ccccc1
- T/C (dose: 100.0 mg/kg/injection, schedule: Q01DX009 (ip), vehicle: saline sonified): 104 % of control
- T/C [11]: 97 % of control
- T/C (dose: 200.0 mg/kg/injection, schedule: Q01DX009 (ip), vehicle: saline sonified): 96 % of control
- T/C [12]: 93 % of control
- T/C (dose: 400.0 mg/kg/injection, schedule: Q01DX009 (ip), vehicle: saline sonified): 93 % of control
- T/C [13]: 92 % of control

Structure (SMILES): C=CCS(=O)(=O)c1ccc(C)cc1
- T/C [11]: 102 % of control
- T/C [12]: 100 % of control
- T/C [13]: 100 % of control

Structure (SMILES): COc1ccc(C(=O)/C=C/c2ccccc2)c(O)c1
- T/C [14]: 98 % of control
- T/C [5]: 102 % of control
- T/C [6]: 102 % of control
- T/C [7]: 98 % of control

Structure (SMILES): CCCCCCCN=C(N)CSSCC(N)=NCCCCCCC
- T/C (dose: 1.56 mg/kg/injection, schedule: Q04DX002 (ip), vehicle: saline with Tween-80): 101 % of control
- T/C (dose: 3.13 mg/kg/injection, schedule: Q04DX002 (ip), vehicle: saline with Tween-80): 96 % of control
- T/C (dose: 6.25 mg/kg/injection, schedule: Q04DX002 (ip), vehicle: saline with Tween-80): 108 % of control and 115 % of control

Structure (SMILES): CCCCCC/C=C/C=C/C(C)C
- T/C (dose: 75.0 mg/kg/injection, schedule: Q01DX001 (ip), vehicle: saline): 95 % of control
- T/C (dose: 75.0 mg/kg/injection, schedule: Q04DX003 (ip), vehicle: saline): 104 % of control
- T/C (dose: 150.0 mg/kg/injection, schedule: Q01DX001 (ip), vehicle: saline): 101 % of control
- T/C [15]: 102 % of control
- T/C (dose: 300.0 mg/kg/injection, schedule: Q01DX001 (ip), vehicle: saline): 105 % of control
- T/C (dose: 300.0 mg/kg/injection, schedule: Q04DX003 (ip), vehicle: saline): 100 % of control

Structure (SMILES): CCCC(=O)CC(=O)CC(C)C
- T/C [14]: 100 % of control
- T/C [5]: 94 % of control
- T/C [6]: 107 % of control
- T/C [7]: 94 % of control

Structure (SMILES): NC(=O)c1cc(NC(=O)c2ccc(C(=O)Nc3cc(C(N)=O)cc(C4=NCCN4)c3)cc2)cc(C2=NCCN2)c1
- T/C (dose: 4.0 mg/kg/injection, schedule: Q01DX015 (ip), vehicle: methylcellulose (MC)): 103 % of control
- T/C (dose: 8.0 mg/kg/injection, schedule: Q01DX015 (ip), vehicle: methylcellulose (MC)): 92 % of control
- T/C (dose: 16.0 mg/kg/injection, schedule: Q01DX015 (ip), vehicle: methylcellulose (MC)): 105 % of control
- T/C (dose: 62.5 mg/kg/injection, schedule: Q01DX015 (ip), vehicle: methylcellulose (MC)): 116 % of control
- T/C (dose: 125.0 mg/kg/injection, schedule: Q01DX015 (ip), vehicle: methylcellulose (MC)): 117 % of control

Structure (SMILES): Cc1ncc([N+](=O)[O-])n1C
- T/C [11]: 100 % of control
- T/C [12]: 100 % of control
- T/C [13]: 97 % of control

Structure (SMILES): OCCC(c1ccccc1)(c1ccccc1)c1ccccc1
- T/C (dose: 6.25 mg/kg/injection, schedule: Q04DX003 (ip), vehicle: saline with Tween-80): 98 % of control
- T/C (dose: 12.5 mg/kg/injection, schedule: Q04DX003 (ip), vehicle: saline with Tween-80): 100 % of control
- T/C (dose: 25.0 mg/kg/injection, schedule: Q04DX003 (ip), vehicle: saline with Tween-80): 89 % of control and 91 % of control
- T/C [2]: 90 % of control

Structure (SMILES): CCOC(=O)CCC(NC(=O)N(CCCl)CCCl)C(=O)OCC (stereo unspecified)
- T/C (dose: 250.0 mg/kg/injection, schedule: Q01DX Z (ip), vehicle: water): 90 % of control
- T/C (dose: 400.0 mg/kg/injection, schedule: Q01DX009 (ip), vehicle: saline): 183 % of control

Structure (SMILES): Nc1ncns1
- T/C (dose: 66.0 mg/kg/injection, schedule: Q04DX003 (ip), vehicle: saline): 104 % of control
- T/C [8]: 117 % of control
- T/C [15]: 120 % of control

Structure (SMILES): CC(=O)Oc1c(Cl)cc(Cl)cc1Cl
- T/C [1]: 107 % of control
- T/C [3]: 100 % of control
- T/C [4]: 100 % of control

Structure (SMILES): O=C(/C=C/c1ccccc1)NC(=S)Nc1nccs1
- T/C (dose: 100.0 mg/kg/injection, schedule: Q01DX009 (ip), vehicle: carboxymethylcellulose (CMC)): 100 % of control and 104 % of control
- T/C (dose: 100.0 mg/kg/injection, schedule: Q04DX002 (ip), vehicle: carboxymethylcellulose (CMC)): 97 % of control and 103 % of control
- T/C (dose: 100.0 mg/kg/injection, schedule: Q04DX003 (ip), vehicle: carboxymethylcellulose (CMC)): 100 % of control
- T/C (dose: 200.0 mg/kg/injection, schedule: Q01DX009 (ip), vehicle: carboxymethylcellulose (CMC)): 100 % of control and 111 % of control
- T/C (dose: 200.0 mg/kg/injection, schedule: Q04DX002 (ip), vehicle: carboxymethylcellulose (CMC)): 99 % of control and 103 % of control
- T/C (dose: 200.0 mg/kg/injection, schedule: Q04DX003 (ip), vehicle: carboxymethylcellulose (CMC)): 96 % of control
- T/C (dose: 400.0 mg/kg/injection, schedule: Q01DX009 (ip), vehicle: carboxymethylcellulose (CMC)): 96 % of control and 102 % of control
- T/C (dose: 400.0 mg/kg/injection, schedule: Q04DX002 (ip), vehicle: carboxymethylcellulose (CMC)): 103 % of control and 87 % of control
- T/C (dose: 400.0 mg/kg/injection, schedule: Q04DX003 (ip), vehicle: carboxymethylcellulose (CMC)): 93 % of control

Source: PubChem BioAssay AID248 (DTP/NCI, 2004)
